Reference: patent US8716284B2, “Adamantyl diamide derivatives and uses of same” (H. Lundbeck A/S, priority 2008, dated 2014)

How the values were obtained:
mGluR5 = mGluR5 (Homo sapiens, UniProt P41594); assay: Radioligand binding assay, [3H]MPEP filtration binding to membrane homogenates; conditions: 5 nM [3H]MPEP; Ki calculated from IC50 by Cheng-Prusoff
Protocol: Binding assays were performed as described in [J. A. O'Brien et al. Mol. Pharmacol., 2003, 64, 731-740] with slight modifications. Briefly, after thawing, the membrane homogenates were resuspended in 50 mM Tris-HCl, 0.9% NaCl binding buffer at pH 7.4 to a final assay concentration of 40 μg protein/well for [^3H]methoxy-5-(2-pyridinylethynyl)pyridine ([^3H] MPEP) (American Radiolabeled Chemicals, Inc., St. Louis, Mo.) filtration binding. Incubations included 5 nM [^3H] MPEP, membranes and either buffer or varying concentrations of compound. Samples were incubated for 60 min at room temperature with shaking. Non-specific binding was defined with 10 μM MPEP. After incubation, samples were filtered over a GF/C filter (presoaked in 0.25% polyethyleneimine (PEI)) and then washed 4 times using a Tomtec® Harvester 96® Mach III cell harvester (Tomtec, Hamden, Conn.) with 0.5 mL ice-cold 50 mM Tris-HCl (pH 7.4).
IC50 values were derived from the inhibition curve and Ki values were calculated according to the Cheng and Prusoff equation of Ki=IC50/(1+[L]/Kd) described in [Y. Cheng and W. H. Prusoff Biochem. Pharmacol. 1973, 22, 3099-3108] where [L] is the concentration of radioligand and Kd is its dissociation constant at the receptor, derived from the saturation isotherm.

[1] = biological target: T1, rat metabotropic glutamate receptor 5 (mGluR5) (Rattus norvegicus, UniProt P31424); assay: Calcium mobilization assay (FLIPR) for negative or positive allosteric activity, HEK 293 cells; assay type: cell-based; conditions: HEK293, negative allosteric modulation, inhibition of EC80 glutamate response; read-out: FLIPR maximum inhibition
T1 construct: expressed in transfected cells; host or cells: HEK 293
T1 sequence (P31424 21-1171 isoform P31424-2 limits assumed): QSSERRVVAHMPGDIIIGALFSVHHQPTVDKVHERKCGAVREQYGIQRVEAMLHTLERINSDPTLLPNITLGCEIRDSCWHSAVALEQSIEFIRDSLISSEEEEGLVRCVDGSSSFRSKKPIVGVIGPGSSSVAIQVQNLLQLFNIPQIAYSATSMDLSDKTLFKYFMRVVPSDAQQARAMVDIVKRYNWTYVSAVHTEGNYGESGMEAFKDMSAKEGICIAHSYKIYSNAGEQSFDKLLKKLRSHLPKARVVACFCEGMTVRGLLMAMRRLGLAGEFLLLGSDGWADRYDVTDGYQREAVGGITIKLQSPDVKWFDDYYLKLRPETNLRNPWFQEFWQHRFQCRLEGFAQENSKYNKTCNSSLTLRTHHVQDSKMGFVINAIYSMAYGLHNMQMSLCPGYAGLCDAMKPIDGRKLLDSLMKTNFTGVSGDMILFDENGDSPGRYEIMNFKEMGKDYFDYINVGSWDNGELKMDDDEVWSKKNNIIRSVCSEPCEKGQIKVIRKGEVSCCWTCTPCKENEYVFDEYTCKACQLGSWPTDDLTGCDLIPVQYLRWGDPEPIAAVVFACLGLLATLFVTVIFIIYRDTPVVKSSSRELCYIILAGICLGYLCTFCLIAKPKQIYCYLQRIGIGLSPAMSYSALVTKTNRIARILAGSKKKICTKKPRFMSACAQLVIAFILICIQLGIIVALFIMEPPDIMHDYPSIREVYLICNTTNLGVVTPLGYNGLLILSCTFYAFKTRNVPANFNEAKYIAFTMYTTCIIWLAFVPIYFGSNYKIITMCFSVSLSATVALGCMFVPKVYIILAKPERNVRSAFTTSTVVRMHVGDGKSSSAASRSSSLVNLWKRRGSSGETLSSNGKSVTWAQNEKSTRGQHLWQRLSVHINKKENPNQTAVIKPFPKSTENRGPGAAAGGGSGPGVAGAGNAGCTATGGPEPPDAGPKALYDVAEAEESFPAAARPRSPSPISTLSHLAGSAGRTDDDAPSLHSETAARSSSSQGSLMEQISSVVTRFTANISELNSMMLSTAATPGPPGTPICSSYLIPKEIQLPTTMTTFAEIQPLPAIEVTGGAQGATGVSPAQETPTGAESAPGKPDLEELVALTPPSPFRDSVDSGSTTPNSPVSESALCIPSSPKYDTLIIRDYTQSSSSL
Method in brief: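 HEK 293 cells stably expressing rat mGluR5, Fluo-4 loaded in HEPES-buffered HBSS pH 7.4 with 0.1% BSA and probenecid. Compound added with EC20 (potentiation) or EC80 (inhibition) glutamate; fluorescence read over 3 min at room temperature. Basal-subtracted maximum fluorescence change fitted to Hill equation.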

adult, male CD1 mice = assay: Mouse marble burying (mMB) assay, anxiolytic effect; assay type: in vivo; conditions: SC injection, one-way ANOVA with Dunnett's test or t-test, read-out: Statistically significant Active Dose
Protocol: Examples 1, 2 and 58 were evaluated in vivo for anxiolytic effects using (1) mouse marble burying (mMB) methods similar to those described in [K. Njung'e, K. and S. L. Handley, Pharmacology, Biochemistry and Behavior, 1991, 38, 63-67] and (2) a modified Geller-Seifter conflict test described in [N. A. Moore et al. Behavioural Pharmacology. 1994, 5, 196-202].
More specifically for the mMB testing, adult, male CD1 mice (Charles River Laboratories (Kingston, N.Y.)), weighing 25 to 30 g, were used. All animals were group-housed in a standard colony room with a 12:12 light/dark cycle (lights on at 6:00 am) for at least one week prior to testing. Food and water were provided ad libitum. Animals were weighed, tail marked, and randomly assigned to treatment groups before testing.
For each test, sixty minutes after the injection of vehicle or test compound, or 30 min after injection of the positive control, buspirone, mice were individually placed into test cages containing 1.5 in of Aspen bedding (PWI brand) and two rows of 10 marbles (20 marbles per test cage total). Filter tops were used to cover each test cage. Thirty minutes later, mice were removed from test cages and returned to their home cages. The number of fully visible marbles (less than ⅔ covered with bedding) were counted and subtracted from 20 to arrive at the number of marbles buried. Twelve mice were tested per group.
Testing included multiple tests with each test performed to evaluate buspirone hydrochloride (BUS; Sigma Aldrich) (positive control) and/or a compound of the present invention. Each compound was dissolved immediately prior to testing in 20% beta-cyclodextrin (compound of the present invention) or distilled water (BUS) and administered at one or more doses (such as 3, 10, and/or 30 mg/kg) via subcutaneous (SC) or intraperitoneal (IP) injection at the indicated pretreatment times (i.e., 30, 60, or 120 min pretreatment). Doses were measured in mg drug (salt form) per kg body weight. Data was analyzed using one-way ANOVA with post-hoc Dunnett's test.

Chain of mGluR5 (P41594 21-1212): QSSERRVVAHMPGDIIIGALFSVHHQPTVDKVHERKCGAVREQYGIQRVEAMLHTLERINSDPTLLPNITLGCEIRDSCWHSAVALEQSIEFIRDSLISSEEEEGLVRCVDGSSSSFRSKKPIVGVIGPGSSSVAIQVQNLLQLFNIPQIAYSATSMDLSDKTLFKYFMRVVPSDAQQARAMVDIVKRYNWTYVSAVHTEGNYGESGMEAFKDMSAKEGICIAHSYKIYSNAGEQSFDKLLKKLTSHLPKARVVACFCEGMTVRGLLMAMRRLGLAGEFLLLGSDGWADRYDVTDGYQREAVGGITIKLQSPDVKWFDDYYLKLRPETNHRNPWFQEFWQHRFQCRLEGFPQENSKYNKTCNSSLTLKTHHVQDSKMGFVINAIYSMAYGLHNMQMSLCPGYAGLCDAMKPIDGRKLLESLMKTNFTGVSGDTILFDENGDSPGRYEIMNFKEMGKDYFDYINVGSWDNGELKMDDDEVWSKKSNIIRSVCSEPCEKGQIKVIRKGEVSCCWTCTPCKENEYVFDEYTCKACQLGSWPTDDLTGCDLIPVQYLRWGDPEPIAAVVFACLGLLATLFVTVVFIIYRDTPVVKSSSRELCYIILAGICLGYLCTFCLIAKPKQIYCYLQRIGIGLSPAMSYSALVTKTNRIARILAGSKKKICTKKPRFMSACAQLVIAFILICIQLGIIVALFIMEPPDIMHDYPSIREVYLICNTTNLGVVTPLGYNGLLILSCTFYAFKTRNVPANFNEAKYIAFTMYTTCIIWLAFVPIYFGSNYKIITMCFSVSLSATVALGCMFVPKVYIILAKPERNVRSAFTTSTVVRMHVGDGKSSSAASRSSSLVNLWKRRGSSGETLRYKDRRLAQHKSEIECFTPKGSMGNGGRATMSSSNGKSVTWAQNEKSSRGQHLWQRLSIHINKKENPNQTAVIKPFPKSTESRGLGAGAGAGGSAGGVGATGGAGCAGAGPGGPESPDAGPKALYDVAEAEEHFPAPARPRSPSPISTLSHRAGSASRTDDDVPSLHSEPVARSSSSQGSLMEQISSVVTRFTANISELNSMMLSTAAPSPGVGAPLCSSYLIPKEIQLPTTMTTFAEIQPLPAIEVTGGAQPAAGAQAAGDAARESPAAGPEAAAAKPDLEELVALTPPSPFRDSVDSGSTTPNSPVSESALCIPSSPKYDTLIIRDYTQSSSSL

For `Cc1cccc(C(=O)NC23CC4CC(CC(NC(=O)c5cccc(-c6ncccn6)c5)(C4)C2)C3)n1` [Example 44, 6-Methyl-pyridine-2-carboxylic acid [3-(3-pyrimidin-2-yl-benzoylamino)-adamantan-1-yl]-amide], the Ki (mGluR5) was 6 to 700 nM and the Emax [1] was 63 to 99%.
`Cc1cncc(C(=O)NC23CC4CC(C2)CC(NC(=O)c2cncc(C)n2)(C4)C3)n1` [Example 145, N,N′-(1,3-adamantylene)bis(6-methyl-pyrazine-2-carboxamide)] was tested, and the minimal effective dose (adult, male CD1 mice) was 30 mg/kg and the Emax [1] was 70 to 99%.
Compound `Cc1cccc(C(=O)NC23CC4CC(CC(NC(=O)c5cscn5)(C4)C2)C3)n1` [Example 120, 6-Methyl-pyridine-2-carboxylic acid {3-[(thiazole-4-carbonyl)-amino]-adamantan-1-yl}-amide] has a Ki (mGluR5) of 6 to 700 nM and an Emax [1] of 70 to 99%.
`O=C(NC12CC3CC(C1)CC(NC(=O)c1ccccn1)(C3)C2)c1ccc2c(c1)CCN2` [Example 67, 2,3-Dihydro-1H-indole-5-carboxylic acid {3-[(pyridine-2-carbonyl)-amino]-adamantan-1-yl}-amide] gave a Ki (mGluR5) of 6 to 700 nM and an Emax [1] of 63 to 99%.
With `Cc1cnc(C(=O)NC23CC4CC(CC(NC(=O)c5ccccn5)(C4)C2)C3)cn1` [Example 63, 5-Methyl-pyrazine-2-carboxylic acid {3-[(pyridine-2-carbonyl)-amino]-adamantan-1-yl}-amide] the minimal effective dose (adult, male CD1 mice) was 30 mg/kg and the Emax [1] was 63 to 99%.
For `Cn1ccc2cc(C(=O)NC34CC5CC(C3)CC(NC(=O)c3ccccn3)(C5)C4)ccc21` [Example 69, 1-Methyl-1H-indole-5-carboxylic acid {3-[(pyridine-2-carbonyl)-amino]-adamantan-1-yl}-amide], the Ki (mGluR5) was 6 to 700 nM and the Emax [1] was 63 to 99%.
`O=C(NC12CC3CC(C1)CC(NC(=O)c1nccs1)(C3)C2)c1ccccn1` [Example 74, Pyridine-2-carboxylic acid {3-[(thiazole-2-carbonyl)-amino]-adamantan-1-yl}-amide] was tested, and the Ki (mGluR5) was 6 to 700 nM and the Emax [1] was 63 to 99%.
`Cc1cncc(C(=O)NC23CC4CC(CC(NC(=O)c5ccc(F)cn5)(C4)C2)C3)n1` [Example 179, 6-Methyl-pyrazine-2-carboxylic acid {3-[(5-fluoro-pyridine-2-carbonyl)-amino]-adamantan-1-yl}-amide] gave a minimal effective dose (adult, male CD1 mice) of 10 mg/kg.
In the case of `Cc1nccc(C(=O)NC23CC4CC(CC(NC(=O)c5ccccn5)(C4)C2)C3)n1` [Example 107, 2-Methyl-pyrimidine-4-carboxylic acid {3-[(pyridine-2-carbonyl)-amino]-adamantan-1-yl}-amide], the minimal effective dose (adult, male CD1 mice) is reported as 10 mg/kg, the Ki (mGluR5) is reported as 6 to 700 nM and the Emax [1] is reported as 70 to 99%.
`Cc1nc2ccc(C(=O)NC34CC5CC(C3)CC(NC(=O)c3ccccn3)(C5)C4)cc2o1` [Example 65, 2-Methyl-benzoxazole-6-carboxylic acid {3-[(pyridine-2-carbonyl)-amino]-adamantan-1-yl}-amide] was tested, and the Ki (mGluR5) was 6 to 700 nM and the Emax [1] was 63 to 99%.
`Cc1cncc(C(=O)NC23CC4CC(CC(NC(=O)c5cccc(F)c5)(C4)C2)C3)n1` [Example 96, 6-Methyl-pyrazine-2-carboxylic acid [3-(3-fluoro-benzoylamino)-adamantan-1-yl]-amide] showed a Ki (mGluR5) of 6 to 700 nM and an Emax [1] of 63 to 99%.
In the case of `O=C(NC12CC3CC(C1)CC(NC(=O)c1cnccn1)(C3)C2)c1cccc(F)c1` [Example 95, Pyrazine-2-carboxylic acid [3-(3-fluoro-benzoylamino)-adamantan-1-yl]-amide], the Ki (mGluR5) is reported as 6 to 700 nM and the Emax [1] is reported as 63 to 99%.
Compound `O=C(NC12CC3CC(C1)CC(NC(=O)c1cnccn1)(C3)C2)c1ccccn1` [Example 105, Pyrazine-2-carboxylic acid {3-[(pyridine-2-carbonyl)-amino]-adamantan-1-yl}-amide] has a minimal effective dose (adult, male CD1 mice) of 30 mg/kg, a Ki (mGluR5) of 6 to 700 nM and an Emax [1] of 70 to 99%.
`Cc1nccc(C(=O)NC23CC4CC(CC(NC(=O)c5cccc(F)c5)(C4)C2)C3)n1` [Example 183, 2-Methyl-pyrimidine-4-carboxylic acid [3-(3-fluoro-benzoylamino)-adamantan-1-yl]-amide] gave a minimal effective dose (adult, male CD1 mice) of 10 mg/kg.
In the case of `O=C(NC12CC3CC(C1)CC(NC(=O)c1cnccn1)(C3)C2)c1ccc(F)cn1` [Example 185, Pyrazine-2-carboxylic acid {3-[(5-fluoro-pyridine-2-carbonyl)-amino]-adamantan-1-yl}-amide], the minimal effective dose (adult, male CD1 mice) is reported as 30 mg/kg and the Emax [1] is reported as 63 to 99%.
`Cc1cccc(C(=O)NC23CC4CC(CC(NC(=O)c5ccccn5)(C4)C2)C3)n1` [Example 72, 6-Methyl-pyridine-2-carboxylic acid {3-[(pyridine-2-carbonyl)-amino]-adamantan-1-yl}-amide] showed a Ki (mGluR5) of 6 to 700 nM and an Emax [1] of 63 to 99%.
Compound `Cn1nc2ccccc2c1C(=O)NC12CC3CC(CC(NC(=O)c4ccccn4)(C3)C1)C2` [Example 79, 2-Methyl-2H-indazole-3-carboxylic acid {3-[(pyridine-2-carbonyl)-amino]-adamantan-1-yl}-amide] has a Ki (mGluR5) of 6 to 700 nM.
With `Cc1cccc(C(=O)NC23CC4CC(C2)CC(NC(=O)c2ccnc(C)n2)(C4)C3)n1` [Example 119, 2-Methyl-pyrimidine-4-carboxylic acid {3-[(6-methyl-pyridine-2-carbonyl)-amino]-adamantan-1-yl}-amide] the minimal effective dose (adult, male CD1 mice) was 10 mg/kg, the Ki (mGluR5) was 6 to 700 nM and the Emax [1] was 70 to 99%.
Work on `O=C(NC12CC3CC(C1)CC(NC(=O)c1ccncn1)(C3)C2)c1cccc(F)c1` [Example 93, Pyrimidine-4-carboxylic acid [3-(3-fluoro-benzoylamino)-adamantan-1-yl]-amide] yielded a minimal effective dose (adult, male CD1 mice) of 30 mg/kg, a Ki (mGluR5) of 6 to 700 nM and an Emax [1] of 63 to 99%.
Work on `Cn1ccc(C(=O)NC23CC4CC(C2)CC(NC(=O)c2nccs2)(C4)C3)n1` [Example 19, Thiazole-2-carboxylic acid {3-[(1-methyl-1H-pyrazole-3-carbonyl)-amino]-adamantan-1-yl}-amide] yielded a Ki (mGluR5) of 6 to 700 nM and an Emax [1] of 63 to 99%.
